Reference: paper PMC5550455, “Unusual Inner-Salt Guaiazulene Alkaloids and bis-Sesquiterpene from the South China Sea Gorgonian Muriceides collaris” (Scientific Reports, 2017)
≈ marks a conversion by molar mass, not a printed value. Read-outs that look alike come from different tables or passages of the source.

How the values were obtained:
[1] = system: A549 human tumor cell line; experiment: Cytotoxicity assay, MTT method, A549; type: cell-based
Method: The cytotoxicity of Fr. […] The IC50 value of each compound was calculated by Reed and Muench’s method. Experiments were repeated three times and carried out in triplicate.

[2] = system: HeLa human tumor cell line; experiment: Cytotoxicity assay, MTT method, HeLa; type: cell-based
From the text: (§1) A frozen specimen of Muriceides collaris (9.6 kg, wet weight) was homogenized and then extracted with MeOH four times (each time, 3 days) at room temperature. The combined solutions were concentrated in vacuo and the concentrated extract was subsequently desalted by redissolving with MeOH to yield a residue (221 g). The crude extract was subjected to silica gel vacuum liquid chromatography (VLC), eluting with a gradient of petroleum/acetone (from 10:0 to 1:1, v:v) and subsequently CH2Cl2/MeOH (from 20:1 to 0:1, v-v) to obtain nine fractions (Fr.A−Fr.I). Each fraction was detected by TLC, and was tested for their cytotoxicity against HeLa and K562 cell lines at 50 μg/mL. […] Fr.G (3.5 g) was then subjected to a Sephadex LH-20 column eluted with CH2Cl2/MeOH (1:1, v/v) to give […]. Fr.G-3 (1.018 g) was separated by silica gel CC (CH2Cl2/MeOH, 30:1, v-v) to give six subfractions (Fr.G-3-1 to Fr.G-3-6). Fr.G-3-2 (223 mg) was purified by ODS CC with a gradient of MeOH/H2O (from 20% to 100%) to yield four subfractions (Fr.G-3-2-1 to Fr.G-3-2-4). Fr.G-3-2-3 (25.0 mg) was purified by semi-preparative HPLC (ODS, 5 μm, 250 × 10 mm; MeOH/H2O, 65:35, v/v; 1.5 mL/min) to afford muriceidines A (1, 10.3 mg) and B (2, 9.6 mg). Fr.G-3-4 (137 mg) was purified by ODS column chromatograph with a gradient of MeOH/H2O (from 20% to 100%) to yield four subfractions (Fr.G-3-4-1 to Fr.G-3-4-4). And Fr.G-3-4-1 (9.6 mg) was further purified by semi-preparative HPLC (ODS, 5 μm, 250 × 10 mm; MeOH/H2O, 60:40, v/v; 1.5 mL/min) to afford muriceidine C (3, 4.6 mg). Similarly, muriceidone A (4, 3.7 mg) and the co-isolated known 3-formylguaiazulene (6, 9.1 mg) was obtained in subfraction Fr. […] And GA (5, 1.5 mg) was obtained in subfraction Fr. […] Chiral seperations of partial 2 [Daicel Chiralpack IB, 5 μm, 4.6 mm × 250 mm], 3 [Daicel Chiralpack IC, 5 μm, 4.6 mm × 250 mm; MeOH, 1.5 mL/min], and 4 [Daicel Chiralpack IC, 5 μm, 4.6 mm × 250 mm; Hexane/isopropyl alcohol 97:3, 1.5 mL/min] were performed on Agilent analytical HPLC system to afford optically pure (+)-2 (0.9 mg), (−)-2 (1.2 mg), (+)-3 (2.5 mg), (−)-3 (2.2 mg), (+)-4 (1.5 mg), and (−)-4 (1.6 mg) (Fig. S1).
(§2) The cytotoxicity of Fr. A–I against K562 and HeLa cell lines and compounds 1–4 against K562, HeLa, A-549, and HL-60 human tumor cell lines were determined by MTT method with Adriamycin as a positive control. The IC50 value of each compound was calculated by Reed and Muench’s method. Experiments were repeated three times and carried out in triplicate.

[3] = system: K562 human tumor cell line; experiment: Cytotoxicity assay, MTT method, K562; type: cell-based
From the text: as §1, §2

[4] = system: HL-60 human tumor cell line; experiment: Cytotoxicity assay, MTT method, HL-60; type: cell-based; details: HL-60 cell line
Method: as §2

[5] = system: larvae of the barnacle Balanus albicostatus; experiment: Antifouling assay, barnacle larval settlement and mortality; type: in vivo, Balanus albicostatus Pilsbry; details: Fistulobalanus albicostatus, read-out: EC50 antifouling activity (50% of larval population inhibited to settle)
Method: The antifouling activity of compounds 1–6 against larval of the barnacle Balanus albicostatus Pilsbry were determined according to the literature. EC50 was calculated as the concentration where 50% of the larval population was inhibited to settle as compared to the control while LC50 was calculated as the concentration where 50% of the larval population was dead. Experiments were repeated three times and carried out in triplicate.

[6] = Homo sapiens, HL-60, MTT method

Cc1cc(/C=C2/C(C(=O)O)=NCCC2O)c2c(C)ccc(C(C)C)cc1-2 (racemic) [compound 2, (±)-Muriceidine B]
IC50 ([1]; Homo sapiens): > 100 µM
IC50 ([2]; Homo sapiens, HeLa): > 100 µM
IC50 ([3]; Homo sapiens, K562, MTT method): > 100 µM
IC50 [4, 6]: > 100 µM

COC1CCN=C(C(=O)O)/C1=C/c1cc(C)c2cc(C(C)C)ccc(C)c1-2 (racemic) [compound 3, (±)-Muriceidine C]
IC50 ([1]; Homo sapiens): 82.7 µM
IC50 ([2]; Homo sapiens, HeLa): > 100 µM
IC50 ([3]; Homo sapiens, K562, MTT method): 3.68 µM
IC50 ([3]; MTT method): 3.7 µM
IC50 [4, 6]: 2.19 µM
IC50 ([4]; MTT method): 2.2 µM

CC1=CC(=O)C2(C3C(=O)c4c(cc(C(C)C)c(C=O)c4C)C3(C)O)C(C)=CC=C(C(C)C)C=C12 (racemic) [compound 4, (±)-Muriceidone A]
IC50 ([1]; Homo sapiens): > 100 µM
IC50 [2]: > 100 µM
IC50 ([3]; Homo sapiens, K562, MTT method): > 100 µM
IC50 [4, 6]: > 100 µM

CC1=CC(=O)C2(C3C(=O)c4c(cc(C(C)C)c(C=O)c4C)C3(C)O)C(C)=CC=C(C(C)C)C=C12 (single isomer, unassigned; (+)) [(+)-4]
IC50 [1]: > 100 µM
IC50 [2]: 42.7 µM
IC50 ([3]; MTT method): 88.4 µM
IC50 ([4]; MTT method): 54.2 µM

CC1=CC(=O)C2(C3C(=O)c4c(cc(C(C)C)c(C=O)c4C)C3(C)O)C(C)=CC=C(C(C)C)C=C12 (single isomer, unassigned; (-)) [(−)-4]
IC50 [1]: > 100 µM
IC50 [2]: 40 µM
IC50 ([3]; MTT method): > 100 µM
IC50 ([4]; MTT method): > 100 µM

Cc1cc(/C=C2/C(C(=O)O)=NCC[C@@H]2O)c2c(C)ccc(C(C)C)cc1-2 [(+)-2]
IC50 ([1]; Homo sapiens): > 100 µM
IC50 ([2]; Homo sapiens, HeLa): > 100 µM
IC50 ([3]; Homo sapiens, K562, MTT method): > 100 µM
IC50 [4, 6]: > 100 µM

CO[C@H]1CCN=C(C(=O)O)/C1=C/c1cc(C)c2cc(C(C)C)ccc(C)c1-2 [(+)-3]
IC50 ([1]; Homo sapiens): > 100 µM
IC50 ([2]; Homo sapiens, HeLa): 53.7 µM
IC50 ([3]; Homo sapiens, K562, MTT method): 47.2 µM
IC50 [4, 6]: 22.7 µM

Cc1cc(/C=C2/C(C(=O)O)=NCC[C@H]2O)c2c(C)ccc(C(C)C)cc1-2 [(−)-2]
IC50 ([1]; Homo sapiens): > 100 µM
IC50 ([2]; Homo sapiens, HeLa): > 100 µM
IC50 ([3]; Homo sapiens, K562, MTT method): > 100 µM
IC50 [4, 6]: > 100 µM

CO[C@@H]1CCN=C(C(=O)O)/C1=C/c1cc(C)c2cc(C(C)C)ccc(C)c1-2 [(−)-3]
IC50 ([1]; Homo sapiens): > 100 µM
IC50 ([2]; Homo sapiens, HeLa): 53.2 µM
IC50 ([3]; Homo sapiens, K562, MTT method): 53.2 µM
IC50 [4, 6]: 5.08 µM
IC50 ([4]; MTT method): 5.1 µM

COc1cccc2c1C(=O)c1c(O)c3c(c(O)c1C2=O)C[C@@](O)(C(=O)CO)C[C@@H]3O[C@H]1C[C@H](N)[C@H](O)[C@H](C)O1 [Adramycin, Adriamycin, reference compound]
IC50 ([1]; Homo sapiens): 0.6 µM
IC50 ([2]; Homo sapiens, HeLa): 0.6 µM
IC50 ([3]; Homo sapiens, K562, MTT method): 0.2 µM
IC50 [4, 6]: 0.3 µM

Cc1cc(/C=C2\CCCN=C2C(=O)O)c2c(C)ccc(C(C)C)cc1-2 [compound 1, Muriceidine A]
IC50 ([1]; Homo sapiens): > 100 µM
IC50 ([2]; Homo sapiens, HeLa): 17.9 µM
IC50 ([3]; Homo sapiens, K562, MTT method): 8.37 µM
IC50 ([3]; MTT method): 8.4 µM
IC50 [4, 6]: > 100 µM
EC50 [5]: 11.9 µg/mL (≈ 35.5 µM)

Cc1cc(C=O)c2c(C)ccc(C(C)C)cc1-2 [compound 6, 3-formyl guaiazulene]
EC50 [5]: 2.39 µg/mL (≈ 10.6 µM)
